Test system: bacteria in clinical bovine mastitis milk samples
Test: Combined bacteria identification and antimicrobial susceptibility test (colour of wells, MIC) on clinical bovine mastitis milk samples
Assay type: cell-based
Protocol: Clinical bovine mastitis milk samples were collected by a vet clinic in South Island, New Zealand. Samples were stored in the freezer for several months and shipped frozen to the testing facility. In this Example, the term “clinical” means that dairy cows had clinical symptoms of an udder infection e.g. cow behaved unusual, milk clots, swollen udder among other typical symptoms. Testing was executed in microwell plate comprising of 24 wells (3×8 wells).
In addition, 20 ul of clinical mastitis sample was added to each well with a laboratory pipette.
(§1) Abbreviations • 1. 80 ul GC+10 ul Tell: 80 ul Giolitti Cantoni base broth+10 ul Tellurite solution (1%); • 2. 80 ul TSB/Esc/Fer Cit: 80 ul Tryptic soy broth containing 0.25% Esculin and 0.125% Ammonium Ferric Citrate; • 3. 80 ul TSB/Esc/Fer Cit+10 ul Genta: 80 ul Tryptic soy broth containing 0.25% Esculin and 0.125% Ammonium Ferric Citrate+10 ul of Gentamycin solution 10 mg/ml; • 4. 80 ul McC/PR25: 80 ul MacConkey broth (single strength) containing 0.0125% phenol red; and • 5. 80 ul TSB/PR25: 80 ul Tryptic soy broth containing 0.0125% phenol red. Bacteria Identification
Columns A to C and rows 1 and 2 were used for bacteria identification. A1: coagulase positive Staph; A2: Staphylococci; B1: Strep group D; B2: Strep group D; C1: general enrichment media (gram+ and gram-bacteria); C2: coliform bacteria.
Column A3 to A8: serial dilution of benzyl penicillin as potassium. Column B3 to B8: serial dilution of ceftiofur as hydrochloride. Column C3 to C8: serial dilution of cloxacillin as sodium. Antibiotic concentrations are listed as free form ranging between 4 ug/ml to 0.05 ug/ml.
Minimum inhibitory substance concentration (MIC) is here defined as the concentration if a colour change occurs between two wells (one well remains red with drug concentration 1, the other one yellow with drug concentration 2, whereas drug concentration 1 is larger than drug concentration 2) then the MIC is the value of drug concentration 1.
Table 21 indicates the microwell plate configuration #1; Drugs: Benzylpenicillin as potassium; Cloxacillin as sodium; Ceftiofur as hydrochloride; Drug concentration in each well (A3 to C8) is based on 80 μl composition+10 μl drug solution+20 μl clinical mastitis milk sample and equivalent to listed drug concentration in μg/ml; 20 ul of clinical bovine mastitis milk sample was added to each well (A1 to C8).
In addition, each well received one drop of clinical sample from a transfer pipette which was on average about 35 mg. This was determined through weighing the well plate prior and after the addition of clinical mastitis samples. This weight was then divided by 24.
as §1, with “•” for “Abbreviations •”, “red.” for “red. Bacteria Identification”
Columns A to C and rows 1 and 2 were used for bacteria identification. A1: coagulase positive Staph; A2: Staphylococci; B1: Strep Group D; B2: -; C1: general enrichment media (gram+ and gram-); C2: coliform bacteria.
Column A3 to A8: serial dilution of benzyl penicillin as potassium. Drug concentrations given as free form ranging between 4 ug/ml to 0.05 ug/ml. Column B3 to B8: serial dilution of ceftiofur as hydrochloride. Drug concentrations given as free form ranging between 4 ug/ml to 0.05 ug/ml. Column C3 to C8: serial dilution of cloxacillin as sodium. Drug concentrations given as free form ranging between 4 ug/ml to 0.05 ug/ml.

CC1(C)S[C@@H]2[C@H](NC(=O)Cc3ccccc3)C(=O)N2[C@H]1C(=O)O [benzyl penicillin]
Colour of media in each well (ID 1, T = 22 h, 37° C., plate configuration #1, drug 0.05 μg/ml): orange
Colour of media in each well (ID 1, T = 22 h, 37° C., plate configuration #1, drug 0.1 μg/ml): red
Colour of media in each well (ID 1, T = 22 h, 37° C., plate configuration #1, drug 0.5 μg/ml): red
Colour of media in each well (ID 1, T = 22 h, 37° C., plate configuration #1, drug 1 μg/ml): red
Colour of media in each well (ID 1, T = 22 h, 37° C., plate configuration #1, drug 2 μg/ml): red
Colour of media in each well (ID 1, T = 22 h, 37° C., plate configuration #1, drug 4 μg/ml): red
Colour of media in each well (ID 2, T = 48 h, 37° C., plate configuration #1, drug 0.05 μg/ml): yellow
Colour of media in each well (ID 2, T = 48 h, 37° C., plate configuration #1, drug 0.1 μg/ml): yellow
Colour of media in each well (ID 2, T = 48 h, 37° C., plate configuration #1, drug 0.5 μg/ml): yellow
Colour of media in each well (ID 2, T = 48 h, 37° C., plate configuration #1, drug 1 μg/ml): yellow
Colour of media in each well (ID 2, T = 48 h, 37° C., plate configuration #1, drug 2 μg/ml): yellow
Colour of media in each well (ID 2, T = 48 h, 37° C., plate configuration #1, drug 4 μg/ml): yellow
Colour of media in each well (ID 3, T = 22 h, 37° C., plate configuration #1, drug 0.05 μg/ml): yellow
Colour of media in each well (ID 3, T = 22 h, 37° C., plate configuration #1, drug 0.1 μg/ml): yellow
Colour of media in each well (ID 3, T = 22 h, 37° C., plate configuration #1, drug 0.5 μg/ml): yellow
Colour of media in each well (ID 3, T = 22 h, 37° C., plate configuration #1, drug 1 μg/ml): yellow
Colour of media in each well (ID 3, T = 22 h, 37° C., plate configuration #1, drug 2 μg/ml): yellow
Colour of media in each well (ID 3, T = 22 h, 37° C., plate configuration #1, drug 4 μg/ml): yellow
Colour of media in each well (ID 3, T = 23 h, 37° C., Table 34, drug 0.05 μg/ml): yellow
Colour of media in each well (ID 3, T = 23 h, 37° C., Table 34, drug 0.1 μg/ml): yellow
Colour of media in each well (ID 3, T = 23 h, 37° C., Table 34, drug 0.5 μg/ml): yellow
Colour of media in each well (ID 3, T = 23 h, 37° C., Table 34, drug 1 μg/ml): yellow
Colour of media in each well (ID 3, T = 23 h, 37° C., Table 34, drug 2 μg/ml): yellow
Colour of media in each well (ID 3, T = 23 h, 37° C., Table 34, drug 4 μg/ml): yellow
Colour of media in each well (ID 3, T~7 h, 37° C., Table 34, drug 0.05 μg/ml): red
Colour of media in each well (ID 3, T~7 h, 37° C., Table 34, drug 0.1 μg/ml): red
Colour of media in each well (ID 3, T~7 h, 37° C., Table 34, drug 0.5 μg/ml): red
Colour of media in each well (ID 3, T~7 h, 37° C., Table 34, drug 1 μg/ml): red
Colour of media in each well (ID 3, T~7 h, 37° C., Table 34, drug 2 μg/ml): red
Colour of media in each well (ID 3, T~7 h, 37° C., Table 34, drug 4 μg/ml): red
Colour of media in each well (ID 3, T~11 h, 37° C., Table 34, drug 0.05 μg/ml): red
Colour of media in each well (ID 3, T~11 h, 37° C., Table 34, drug 0.1 μg/ml): red
Colour of media in each well (ID 3, T~11 h, 37° C., Table 34, drug 0.5 μg/ml): red
Colour of media in each well (ID 3, T~11 h, 37° C., Table 34, drug 1 μg/ml): red
Colour of media in each well (ID 3, T~11 h, 37° C., Table 34, drug 2 μg/ml): red
Colour of media in each well (ID 3, T~11 h, 37° C., Table 34, drug 4 μg/ml): red
Colour of media in each well (ID 4, T = 22 h, 37° C., plate configuration #1, drug 0.05 μg/ml): yellow
Colour of media in each well (ID 4, T = 22 h, 37° C., plate configuration #1, drug 0.1 μg/ml): yellow
Colour of media in each well (ID 4, T = 22 h, 37° C., plate configuration #1, drug 0.5 μg/ml): yellow
Colour of media in each well (ID 4, T = 22 h, 37° C., plate configuration #1, drug 1 μg/ml): orange
Colour of media in each well (ID 4, T = 22 h, 37° C., plate configuration #1, drug 2 μg/ml): orange
Colour of media in each well (ID 4, T = 22 h, 37° C., plate configuration #1, drug 4 μg/ml): yellow
Colour of media in each well (ID 5, T = 23 h, 37° C., plate configuration #2, drug 0.05 μg/ml): red
Colour of media in each well (ID 5, T = 23 h, 37° C., plate configuration #2, drug 0.1 μg/ml): red
Colour of media in each well (ID 5, T = 23 h, 37° C., plate configuration #2, drug 0.5 μg/ml): red
Colour of media in each well (ID 5, T = 23 h, 37° C., plate configuration #2, drug 1 μg/ml): red
Colour of media in each well (ID 5, T = 23 h, 37° C., plate configuration #2, drug 2 μg/ml): red
Colour of media in each well (ID 5, T = 23 h, 37° C., plate configuration #2, drug 4 μg/ml): red
Colour of media in each well (ID 5 to 8, T = 0 h (prior incubation, reference), plate configuration #2, drug 0.05 μg/ml): red
Colour of media in each well (ID 5 to 8, T = 0 h (prior incubation, reference), plate configuration #2, drug 0.1 μg/ml): red
Colour of media in each well (ID 5 to 8, T = 0 h (prior incubation, reference), plate configuration #2, drug 0.5 μg/ml): red
